In US20260137706A1, “METHODS OF TREATING INFLAMMATORY DISEASES” (INTERLINE THERAPEUTICS, INC., priority 2023, published 2026):

How the values were obtained:
[1] = tested on: NF-κB pathway (SEAP) in THP1-Dual cells; assay: THP-1 Dual cell SEAP assay (L18-MDP stimulated); type: cell-based; conditions: Homo sapiens, THP1-Dual, read-out: NF-κB THP1 IC50 bin
In short: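 THP1-Dual cells (~25,000/well) were preincubated 30 min with serially diluted compounds, then stimulated with 10 ng/mL L18-MDP (final) for 20-24 h at 37 °C. Supernatant SEAP was read with QUANTI-Blue at OD 620-655 nm after 2 h. IC50 came from non-linear fits of % inhibition versus DMSO/L18-MDP controls after media-blank subtraction.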

[2] = target: T1, binding of His-XIAP(BIR2)-avi fusion protein to GST-RIPK2 fusion protein (RIPK2/XIAP) (Homo sapiens, UniProt O43353); assay: RIPK2-XIAP binding competition PPI assay (TR-FRET); conditions: RIPK2/XIAP binding competition PPI assay; for Emax: Amax, read-out: PPI Amax bin; for IC50: read-out: PPI IC50 bin
T1 construct: made in house; host or cells: baculovirus infected Sf9 cells
In short: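 Compounds (in DMSO, 100-fold stock) incubated 120 min at 23 °C with 1 nM GST-RIPK2 (aa 1-310) and 25 nM His-XIAP(BIR2 aa 152-231)-avi, plus anti-His-XL665 and anti-GST-Tb, in pH 7.5 Tris buffer. Read-out: 665/520 nm emission ratio. Normalized to no-inhibitor (0%) and 50 nM GSK583 (−100%); Amax binned A–D.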

[3] = target: T2, GST-RIPK2 fusion protein (human RIPK2, amino acids 1-310) (Homo sapiens, UniProt O43353); assay: RIPK2 binding competition assay (TR-FRET, Tracer 199 displacement); conditions: 10 nM Tracer 199, 1 nM GST-RIPK2, read-out: RIPK2 IC50
T2 construct: made in house; host or cells: baculovirus infected Sf9 cells
In short: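 GST-RIPK2 (human aa 1-310, Sf9-expressed; final 1 nM) with Tracer 199 (final 10 nM) and Tb-anti-GST (final 0.5 nM) in Tris pH 7.5 buffer, 45 min at 22 °C. TR-FRET 665/620 nm ratio after 337 nm excitation; normalized to no-inhibitor (0%) and no-protein (−100%), giving IC50.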

T1 sequence (O43353 1-310 limits assumed): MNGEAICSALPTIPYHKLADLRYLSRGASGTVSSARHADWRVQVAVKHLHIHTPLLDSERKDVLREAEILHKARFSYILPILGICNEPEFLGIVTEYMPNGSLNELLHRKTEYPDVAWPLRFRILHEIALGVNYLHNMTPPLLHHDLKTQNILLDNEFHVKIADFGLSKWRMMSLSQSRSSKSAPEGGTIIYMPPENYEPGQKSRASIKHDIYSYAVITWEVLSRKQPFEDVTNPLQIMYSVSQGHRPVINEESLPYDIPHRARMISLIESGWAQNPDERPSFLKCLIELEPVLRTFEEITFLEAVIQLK
T2 sequence (O43353 1-310): as the sequence (O43353 1-310 limits assumed) above

Structure (SMILES) | IC50 [1] [nM] | Emax [2] [%] | IC50 [2] [nM] | IC50 [3] [nM]
C[C@@H](CO)COc1cc2ncc(-c3cc(Cl)c(N)nc3F)n2cc1S(=O)(=O)C(C)(C)C [Example 201, (S)-3-((3-(6-amino-5-chloro-2-fluoropyridin-3-yl)-6-(tert-butylsulfonyl)imidazo [1,2-a]pyridin-7-yl)oxy)-2-methylpropan-1-ol] | 50 to 250 | > 80 | 1 to 2.5 | 1 to 2.5
CC(C)(C)S(=O)(=O)c1cn2c(-c3cc(F)c(N)nc3F)cnc2cc1OCC(F)(F)CN [Example 202, 5-(7-(3-amino-2,2-difluoropropoxy)-6-(tert-butylsulfonyl)imidazo [1,2-a]pyridin-3-yl)-3,6-difluoropyridin-2-amine] | 50 to 250 | > 80 | 1 to 2.5 | 1 to 2.5
CC(C)(C)S(=O)(=O)c1cn2c(-c3cc(F)c(N)nc3F)cnc2cc1OCC(F)CO (centres unmarked) [Example 203, 3-((3-(6-amino-2,5-difluoropyridin-3-yl)-6-(tert-butylsulfonyl)imidazo [1,2-a]pyridin-7-yl)oxy)-2-fluoropropan-1-ol] | 50 to 250 | > 80 | 1 to 2.5 | 1 to 2.5
CC(F)(CO)COc1cc2ncc(-c3cc(F)c(N)nc3F)n2cc1S(=O)(=O)C(C)(C)C (centres unmarked) [Example 204, 3-((3-(6-amino-2,5-difluoropyridin-3-yl)-6-(tert-butylsulfonyl)imidazo [1,2-a]pyridin-7-yl)oxy)-2-fluoro-2-methylpropan-1-ol] | 50 to 250 | > 80 | 1 to 2.5 | 1 to 2.5
CCCS(=O)(=O)Nc1cc(-c2cnc3cc(OC)c(C(=O)N(C)C(C)C)cn23)cc(F)c1OC [Example 205, 3-(3-fluoro-4-methoxy-5-(propylsulfonamido)phenyl)-N-isopropyl-7-methoxy-N-methylimidazo[1,2-a]pyridine-6-carboxamide] | > 1000 | 55 to 80 | > 20 | > 20
CC(C)(C)S(=O)(=O)c1cn2c(-c3ccc4[nH]ccc4c3)cnc2cc1OCCO [Example 206, 2-((6-(tert-butylsulfonyl)-3-(1H-indol-5-yl)imidazo[1,2-a]pyridin-7-yl)oxy)ethan-1-ol] | 50 to 250 | 55 to 80 | < 1 | 1 to 2.5
CC(C)(C)S(=O)(=O)c1cn2c(-c3ccc4[nH]cnc4c3)cnc2cc1OCCO [Example 207, 2-((3-(1H-benzo[d]imidazol-5-yl)-6-(tert-butylsulfonyl)imidazo [1,2-a]pyridin-7-yl)oxy)ethan-1-ol] | > 1000 | < 30 | > 20 | 2.5 to 20
CC(C)(C)S(=O)(=O)c1cn2c(-c3ccc4nccn4c3)cnc2cc1OCCO [Example 208, 2-((6-(tert-butylsulfonyl)-[3,6′-biimidazo[1,2-a]pyridin] -7-yl)oxy)ethan-1-ol] | > 1000 | < 30 | > 20 | 2.5 to 20
CC(C)(C)S(=O)(=O)c1cn2c(-c3ccc4ccnn4c3)cnc2cc1OCCO [Example 209, 2-((6-(tert-butylsulfonyl)-3-(pyrazolo[1,5-a]pyridin-6-yl)imidazo[1,2-a]pyridin-7-yl)oxy)ethan-1-ol] | > 1000 | 30 to 55 | > 20 | > 20
CC(C)(C)S(=O)(=O)c1cn2c(-c3cnc4cn[nH]c4c3)cnc2cc1OCCO [Example 210, 2-((6-(tert-butylsulfonyl)-3-(1H-pyrazolo[4,3-b]pyridin-6-yl)imidazo[1,2-a]pyridin-7-yl)oxy)ethan-1-ol] | > 1000 | < 30 | > 20 | > 20
COc1cn2ncc(-c3cc(F)c(OC)c(NS(=O)(=O)c4cnn(C)c4)c3)c2nc1OC [Example 211, N-(5-(5,6-dimethoxypyrazolo[1,5-a]pyrimidin-3-yl)-3-fluoro-2-methoxyphenyl)-1-methyl-1H-pyrazole-4-sulfonamide] | > 1000 | > 80 | 2.5 to 20 | 2.5 to 20
C[C@@H](O)COc1cc2ncc(-c3cc(Cl)c(N)nc3F)n2cc1S(=O)(=O)C(C)(C)C [Example 212, (R)-1-((3-(6-amino-5-chloro-2-fluoropyridin-3-yl)-6-(tert-butylsulfonyl)imidazo [1,2-a]pyridin-7-yl)oxy)propan-2-ol] | 50 to 250 | > 80 | 1 to 2.5 | 1 to 2.5
COc1cc2ncc(-c3cc(F)c(N)nc3F)n2cc1C1CCCN(C)C1=O (centres unmarked) [Example 213, 3-(3-(6-amino-2,5-difluoropyridin-3-yl)-7-methoxyimidazo[1,2-a]pyridin-6-yl)-1-methylpiperidin-2-one] | > 1000 | 55 to 80 | > 20 | > 20
COc1cc2ncc(-c3cc(F)c(OC)c(NS(=O)(=O)c4cnn(C)c4)c3)n2cc1S(C)(=O)=O [Example 214, N-(3-fluoro-2-methoxy-5-(7-methoxy-6-(methylsulfonyl)imidazo[1,2-a]pyridin-3-yl)phenyl)-1-methyl-1H-pyrazole-4-sulfonamide] | 50 to 250 | > 80 | < 1 | < 1
CC(C)(C)S(=O)(=O)c1cc2c(-c3cc4cc[nH]c4nc3F)cnn2cc1OCCO [Example 215, 2-((5-(tert-butylsulfonyl)-3-(6-fluoro-1H-pyrrolo[2,3-b]pyridin-5-yl)pyrazolo[1,5-a]pyridin-6-yl)oxy)ethan-1-ol] | < 50 | > 80 | < 1 | < 1
COc1cc2ncc(-c3cc4cc[nH]c4nc3F)n2cc1S(=O)(=O)C(C)(C)C [Example 216, 6-(tert-butylsulfonyl)-3-(6-fluoro-1H-pyrrolo[2,3-b]pyridin-5-yl)-7-methoxyimidazo[1,2-a]pyridine] | < 50 | > 80 | < 1 | < 1
CC(C)(C)S(=O)(=O)c1cn2c(-c3cc4cc[nH]c4cc3F)cnc2cc1OCCO [Example 217, 2-((6-(tert-butylsulfonyl)-3-(6-fluoro-1H-indol-5-yl)imidazo[1,2-a]pyridin-7-yl)oxy)ethan-1-ol] | 50 to 250 | 55 to 80 | < 1 | < 1
Cc1c[nH]c2ncc(-c3cnc4cc(OCCO)c(S(=O)(=O)C(C)(C)C)cn34)cc12 [Example 218, 2-((6-(tert-butylsulfonyl)-3-(3-methyl-1H-pyrrolo[2,3-b]pyridin-5-yl)imidazo[1,2-a]pyridin-7-yl)oxy)ethan-1-ol] | > 1000 | 55 to 80 | 2.5 to 20 | 2.5 to 20
CC(C)(C)S(=O)(=O)c1cn2c(-c3cnc4[nH]cc(Cl)c4c3)cnc2cc1OCCO [Example 219, 2-((6-(tert-butylsulfonyl)-3-(3-chloro-1H-pyrrolo[2,3-b]pyridin-5-yl)imidazo[1,2-a]pyridin-7-yl)oxy)ethan-1-ol] | 50 to 250 | > 80 | 1 to 2.5 | 1 to 2.5
CC(C)(C)S(=O)(=O)c1cn2c(-c3cnc4[nH]cc(F)c4c3)cnc2cc1OCCO [Example 220, 2-((6-(tert-butylsulfonyl)-3-(3-fluoro-1H-pyrrolo[2,3-b]pyridin-5-yl)imidazo[1,2-a]pyridin-7-yl)oxy)ethan-1-ol] | < 50 | > 80 | < 1 | < 1
